Measured values from PubChem BioAssay AID1083212 (The Scripps Research Institute Molecular Screening Center, 2014).
Active and inactive are the calls of the source.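 The calls were made as follows: active = IC50 of 10 µM or lower; inactive = IC50 above 10 µM.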

Biological target: Tyrosyl-DNA phosphodiesterase 2 (Homo sapiens) (UniProt O95551)
Assay: human TDP2 enzyme inhibitors, late-stage follow-up, biochemical, epi absorbance, IC50 (AID 1083212)
Conditions: recombinant TDP2, T5PNP hydrolysis, p-nitrophenol absorbance 415 nm

Sequence of Tyrosyl-DNA phosphodiesterase 2 (Homo sapiens) (O95551 whole entry, looked up): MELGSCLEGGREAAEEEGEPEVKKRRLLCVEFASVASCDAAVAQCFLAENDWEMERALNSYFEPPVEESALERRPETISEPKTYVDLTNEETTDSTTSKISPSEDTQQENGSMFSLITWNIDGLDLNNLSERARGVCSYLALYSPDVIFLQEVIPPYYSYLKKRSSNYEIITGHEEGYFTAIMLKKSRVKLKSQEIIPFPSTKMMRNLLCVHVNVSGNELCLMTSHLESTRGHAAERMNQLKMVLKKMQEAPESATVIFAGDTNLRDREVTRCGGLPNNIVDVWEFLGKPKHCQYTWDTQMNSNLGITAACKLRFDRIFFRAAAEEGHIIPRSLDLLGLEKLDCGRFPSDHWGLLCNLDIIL

IC50 | Structure (SMILES)
> 128 µM (inactive) | COc1ccc(CNC(=S)Nc2ccc(S(N)(=O)=O)cc2)cc1
1.32 µM | O=C(O)c1ccc(NC2=C/C(=N/S(=O)(=O)c3cccs3)c3ccccc3C2=O)cc1
> 128 µM (inactive) | Cc1ccc(NC2=C/C(=N\S(=O)(=O)c3cccs3)c3ccccc3C2=O)cc1
